From patent US8129106B2, “Sequence-specific detection of methylation in biomolecules” (priority 2004, dated 2012) come the findings set out here.

Assay [1] has as its target T1, M.HhaI (Haemophilus parahaemolyticus, UniProt P05102). Put plainly: M.HhaI-catalysed coupling of biotinylated aziridine cofactors with duplex oligodeoxynucleotide I-II (anion exchange HPLC). Format: biochemical, Haemophilus haemolyticus. Particulars: for conversion of duplex I-II to coupling product (protein-DNA complex): cofactor 80 μM, duplex I-II 10 μM, M.HhaI 11 μM, 37° C., after 3 h (1), 1.5 h (2), 6.25 h (3). As for the experimental part: Solutions (400 μL) of aziridine cofactor 1, 2 or 3 (32 nmol, 80 μM), duplex oligodeoxynucleotide I-II (4 nmol, 10 μM) and M.HhaI (4.4 nmol, 11 μM) in buffer (10 mM Tris hydrochloride, pH 7.4, 50 mM sodium chloride, 0.05 mM ethylene-diaminetetraacetic acid and 2 mM β-mercaptoethanol) were incubated at 37° C. The progress of the coupling reactions was monitored by anion exchange HPLC (Poros 10 HQ, 10 μm, 4.6×10 mm, Applied Biosystems). Compounds were eluted with aqueous potassium chloride (0.2 M for 5 min, followed by linear gradients to 0.4 M in 5 min, to 0.6 M in 20 min and to 1 M in 5 min) in Tris hydrochloride buffer (10 mM, pH 7.6) at a flow of 4 mL/min. […] These new compounds are assigned to non-covalent protein-DNA complexes between M.HhaI and the coupling products I^1-II, I^2-II and I^3-II based on their UV absorption ratio at 260 nm and 280 nm.
The presence and functionality of biotin groups in I^1-II, I^2-II and I^3-II were verified by addition of streptavidin. Residual aziridine cofactors 1, 2 or 3 were first removed from the labelled duplexes I^1-II, I^2-II or I^3-II by gel filtration using NAP-5 columns (Amersham Biosciences, Freiburg, Germany) according to the instructions of the supplier. Afterwards, streptavidin (25 μg) was added to the solutions (25 μL, 0.25 nmol I^1-II, I^2-II or I^3-II) and incubation was performed at 37° C. for 30 min.

The target in another assay is T2, M.SssI (Spiroplasma monobiae, UniProt P15840).
T2 construct: made in house; host or cells: Escherichia coli
T2 sequence (P15840 whole entry): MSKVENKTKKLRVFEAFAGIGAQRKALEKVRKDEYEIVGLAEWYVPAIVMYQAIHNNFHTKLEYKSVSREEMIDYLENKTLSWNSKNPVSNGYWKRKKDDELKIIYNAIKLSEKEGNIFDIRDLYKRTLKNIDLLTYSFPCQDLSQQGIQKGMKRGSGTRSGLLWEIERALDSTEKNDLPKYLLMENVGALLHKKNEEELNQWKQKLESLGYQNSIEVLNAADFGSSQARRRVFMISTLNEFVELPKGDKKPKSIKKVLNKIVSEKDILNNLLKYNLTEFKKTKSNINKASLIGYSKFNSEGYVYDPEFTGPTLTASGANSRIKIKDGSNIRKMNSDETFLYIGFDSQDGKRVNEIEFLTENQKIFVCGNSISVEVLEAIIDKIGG
Put plainly: M.SssI-catalysed coupling of aziridine cofactors with duplex oligodeoxynucleotides (anion exchange HPLC). The format is biochemical. As for the experimental part:
M.SssI-mediated conversion of 6BAz was studied by using a duplex-oligodeoxynucleotide and purified DNA-methyl-transferase. After adjusting and optimizing the reaction conditions (pH and composition of the puffers, temperature, amount of M.SssI) 60% of a hemi-methylated duplex-oligodeoxynucleotide was labelled in a 2 h reaction. When unmethylated duplex-oligodeoxynucleotides were used, approximately 100% was labelled. These diverging results may be due to the presence of minor amounts of natural cofactor AdoMet in the enzyme preparation.
Solutions of hemi-methylated duplex oligodeoxynucleotide I-II (1 μM, I=5′-[…]-3′ (SEQ ID NO:1), II=5′-[…]-3′ with M=5-methyl-2′-deoxycytidine (SEQ ID NO:2)) or non-methylated duplex oligodeoxynucleotide I-III (1 μM, I=5′-[…]-3′ (SEQ ID NO:1), III=5′-[…]-3′ (SEQ ID NO:3)), aziridine cofactor 3 (100 μM) and M.SssI (2 μM) in buffer (10 mM Tris hydrochloride, pH 7.4, 50 mM sodium chloride, 10 mM ethylenediaminetetraacetic acid and 2 mM dithiothreitol) were incubated at 21° C. The progress of the coupling reactions was monitored by anion exchange HPLC (Poros 10 HQ, 10 μm, 4.6×100 mm, Applied Biosystems). Compounds were eluted with aqueous potassium chloride (0.2 M for 5 min, followed by linear gradients to 0.5 M in 5 min and to 1 M in 30 min) in Tris hydrochloride buffer (10 mM, pH 7.6) supplemented with sodium azide (1 mM) at a flow of 4 mL/min.

Assay [2] concerns the target T1, M.HhaI. In words: Methylation-sensitive biotinylation of linearized pUC19 plasmid DNA with M.HhaI (R.HhaI protection, streptavidin mobility shift). Particulars: cofactor 80 μM, 37° C. for 2 h, non- vs CpG-methylated LpUC19. Format: biochemical, Haemophilus haemolyticus. As for the experimental part:
The reaction with aziridine cofactor 1 and M.HhaI was used to specifically detect DNA methylation of plasmid DNA (FIG. 2). Experiments were performed with R.XmnI-linearized plasmid pUC19 DNA (LpUC19). Cytosine residues within the 5′-CG-3′ DNA sequences (CpG-motives) of LpUC19 were methylated using the DNA (cytosine-5)-methyltransferase M.SssI and the natural cofactor AdoMet. Non- and CpG-methylated LpUC19 were treated with biotinylated aziridine cofactor 1 and M.HhaI, which can only alkylate the first cytosine residue within the 5′-GCGC-3′ DNA sequence if this residue is not blocked by methylation of the inner CpG-motive. The different plasmids where then analyzed by treatment with the restriction endo-nuclease R.HhaI (5′-GCGC-3′ recognition sequence) or streptavidin (tight binding to the biotin group) leading to fragmentation, no reaction or an electrophoretic mobility shift (FIG. 2A). […]
Samples (10 μL) of unmodified (A.), methylated (B. or C.) or biotinylated (C.) LpUC19 plasmid DNA (200 ng) in buffer (10 mM Tris hydrochloride, pH 7.9, 10 mM magnesium chloride, 50 mM sodium chloride, 1 mM 1,4-dithiothreitol and 1 mg/mL bovine serum albumin) were incubated with R.HhaI (2 U) at 37° C. for 1 h. DNA fragmentation was analyzed by agarose gel electrophoresis (1% agarose gel). […]

Like-named read-outs stand apart in the source and are kept apart here.

T1 sequence (P05102 whole entry): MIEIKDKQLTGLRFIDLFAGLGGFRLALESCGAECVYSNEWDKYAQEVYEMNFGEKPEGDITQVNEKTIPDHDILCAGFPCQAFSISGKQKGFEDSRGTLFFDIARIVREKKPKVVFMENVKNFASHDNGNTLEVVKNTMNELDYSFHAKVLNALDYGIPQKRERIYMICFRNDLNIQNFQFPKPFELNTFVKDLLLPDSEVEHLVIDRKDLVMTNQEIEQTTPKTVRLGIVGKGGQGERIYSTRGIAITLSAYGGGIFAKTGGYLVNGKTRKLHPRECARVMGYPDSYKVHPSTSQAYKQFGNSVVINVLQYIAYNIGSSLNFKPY

Consider “5′-N-Aziridinyl-N6-[1″-(N″-biotinyl)-4″-aminobutyl]-5′-deoxyadenosine [aziridine cofactor 3]”, for which, at M.HhaI [1], the “substrate for M.HhaI” value is listed as “good substrates” and the “conversion of duplex I-II to coupling product (protein-DNA complex)” value (shortened to “conversion of duplex I-II”) is “almost complete conversion”. For the same substance, the “cofactor use by M.SssI (transfer onto DNA)” value at M.SssI is listed as “substrate for M.SssI”. This substance also yielded a hemi-methylated duplex-oligodeoxynucleotide labelled at M.SssI (M.SssI, 2 h reaction, optimized conditions) of 60%. On M.SssI (M.SssI, optimized conditions), the unmethylated duplex-oligodeoxynucleotide labelled result is reported as “approximately 100%”. Besides, the “conversion of non-methylated duplex I-III to protein-DNA complexes with coupling product” value at M.SssI (duplex I-III 1 μM, cofactor 100 μM, M.SssI 2 μM, 21° C., 3 h incubation) was “almost complete conversion”. On M.SssI (hemi-methylated duplex I-II 1 μM, cofactor 100 μM, M.SssI 2 μM, 21° C., 3 h), the “conversion of starting duplex I-II to product duplex I^3-II” value is recorded as “about 60%”. Further, the “cofactor use by M.SssI (transfer onto DNA)” value on M.SssI (listed as 6BAz) was “aziridin-cofactor for the DNA-MTase M.SssI”.
Turning to “4-Amino-7-(5′-N-aziridinyl-5′-deoxy-β-D-ribofuranosyl)-5-[1″-(N″-biotinyl)-3″-aminopropyl]-7H-pyrrolo[2,3-d]pyrimidine [aziridine cofactor 1]”, on M.HhaI [1], the “substrate for M.HhaI” value is on record as “good substrates” and the “conversion of duplex I-II” value was “almost complete conversion”. Further, the “labelling reaction of LpUC19 plasmid DNA with M.HhaI” value on M.HhaI [2] was “sequence-specific and blocked by CpG-methylation”.
Consider “4-Amino-7-(5′-N-aziridinyl-5′-deoxy-β-D-ribofuranosyl)-5-[1″-(N″-biotinyl)-3″-aminoprop-1-ynyl]-7H-pyrrolo[2,3-d]pyrimidine [aziridine cofactor 2]”, for which, at M.HhaI [1], the “substrate for M.HhaI” value is listed as “good substrates” and the “conversion of duplex I-II” value is “almost complete conversion”.
